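Five compound concentrations were applied to cells in 96-well plates for 48 hours; endpoints were derived by simple linear interpolation of the resulting dose-response curve. At the GI50, growth is halved. TGI marks complete inhibition of growth.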
What was measured:
Assay in all cases: NCI anticancer screen, dose series, 48 h
[1] = tested on: 786-0 renal
[2] = tested on: A498 renal
[3] = tested on: A549 NSCLC
[4] = tested on: ACHN renal
[5] = tested on: BT-549 breast
[6] = tested on: CAKI-1 renal
[7] = tested on: CCRF-CEM leukemia
[8] = tested on: COLO 205 colon
[9] = tested on: DU-145 prostate
[10] = tested on: HCC-2998 colon
[11] = tested on: HCT-116 colon
[12] = tested on: HCT-15 colon
[13] = tested on: HL-60(TB) leukemia
[14] = tested on: HOP-62 NSCLC
[15] = tested on: HOP-92 NSCLC
[16] = tested on: HS 578T breast
[17] = tested on: HT29 colon
[18] = tested on: IGROV1 ovarian
[19] = tested on: K-562 leukemia
[20] = tested on: KM12 colon
[21] = tested on: LOX IMVI melanoma
[22] = tested on: M14 melanoma
[23] = tested on: MALME-3M melanoma
[24] = tested on: MCF7 breast
[25] = tested on: MDA-MB-231 breast
[26] = tested on: MDA-MB-435
[27] = tested on: MOLT-4 leukemia
[28] = tested on: NCI-H226 lung
[29] = tested on: NCI-H23 lung
[30] = tested on: NCI-H460 lung
[31] = tested on: NCI-H522 lung
[32] = tested on: NCI/ADR-RES ovarian
[33] = tested on: OVCAR-3 ovarian
[34] = tested on: OVCAR-4 ovarian
[35] = tested on: OVCAR-5 ovarian
[36] = tested on: OVCAR-8 ovarian
[37] = tested on: PC-3 prostate
[38] = tested on: RPMI-8226 leukemia
[39] = tested on: RXF 393 renal
[40] = tested on: SF-268 CNS
[41] = tested on: SF-295 CNS
[42] = tested on: SF-539 CNS
[43] = tested on: SK-MEL-2 melanoma
[44] = tested on: SK-MEL-28 melanoma
[45] = tested on: SK-MEL-5 melanoma
[46] = tested on: SK-OV-3 ovarian
[47] = tested on: SN12C renal
[48] = tested on: SNB-19 CNS
[49] = tested on: SNB-75 CNS
[50] = tested on: SR leukemia
[51] = tested on: SW-620 colon
[52] = tested on: T-47D breast
[53] = tested on: TK-10 renal
[54] = tested on: U251 CNS
[55] = tested on: UACC-257 melanoma
[56] = tested on: UACC-62 melanoma
[57] = tested on: UO-31 renal

Q: `CS(=O)(=O)Nc1ccc(Nc2c3ccccc3nc3cc(N)ccc23)cc1` was tested. Which GI50 [1] did it give?
A: 0.277 µM

Q: And the TGI [1]?
A: 4.66 µM

Q: And the GI50 [2]?
A: 1.32 µM

Q: What about the TGI [2] of the same compound?
A: 17.4 µM

Q: And the GI50 [3]?
A: 0.062 µM

Q: What about the TGI [3] of the same compound?
A: 15.6 µM

Q: And the GI50 [4]?
A: 0.231 µM

Q: What about the TGI [4] of the same compound?
A: 17.8 µM

Q: What about the GI50 [5] of the same compound?
A: 1.35 µM

Q: And the TGI [5]?
A: 8.41 µM

Q: And the GI50 [6]?
A: 0.319 µM

Q: And the TGI [6]?
A: 13 µM

Q: And the GI50 [7]?
A: 0.0776 µM

Q: And the TGI [7]?
A: 2.04 µM

Q: And the GI50 [8]?
A: 2.51 µM

Q: What about the TGI [8] of the same compound?
A: 20 µM

Q: And the GI50 [9]?
A: 0.48 µM

Q: And the TGI [9]?
A: 26 µM

Q: And the GI50 [10]?
A: 5.22 µM

Q: What about the TGI [10] of the same compound?
A: 24.4 µM

Q: What about the GI50 [11] of the same compound?
A: 0.717 µM

Q: And the TGI [11]?
A: 29.2 µM

Q: What about the GI50 [12] of the same compound?
A: 11 µM

Q: And the TGI [12]?
A: > 100 µM

Q: What about the GI50 [13] of the same compound?
A: 0.769 µM

Q: And the TGI [13]?
A: 8.51 µM

Q: What about the GI50 [14] of the same compound?
A: 0.26 µM

Q: What about the TGI [14] of the same compound?
A: 10.2 µM

Q: What about the GI50 [15] of the same compound?
A: 0.398 µM

Q: And the TGI [15]?
A: 4.4 µM

Q: And the GI50 [16]?
A: 1.72 µM

Q: And the TGI [16]?
A: 13.4 µM

Q: And the GI50 [17]?
A: 5.15 µM

Q: What about the TGI [17] of the same compound?
A: 31.7 µM

Q: What about the GI50 [18] of the same compound?
A: 5.38 µM

Q: What about the TGI [18] of the same compound?
A: > 73.6 µM

Q: What about the GI50 [19] of the same compound?
A: 1.31 µM

Q: What about the TGI [19] of the same compound?
A: 23.9 µM

Q: And the GI50 [20]?
A: 0.499 µM

Q: And the TGI [20]?
A: 7.14 µM

Q: And the GI50 [21]?
A: 0.418 µM

Q: And the TGI [21]?
A: 15.2 µM

Q: What about the GI50 [22] of the same compound?
A: 0.361 µM

Q: What about the TGI [22] of the same compound?
A: 7.1 µM

Q: What about the GI50 [23] of the same compound?
A: 0.62 µM

Q: What about the TGI [23] of the same compound?
A: 3.66 µM

Q: What about the GI50 [24] of the same compound?
A: 0.052 µM

Q: And the TGI [24]?
A: 9.16 µM

Q: What about the GI50 [25] of the same compound?
A: 12.4 µM

Q: And the TGI [25]?
A: 34 µM

Q: What about the GI50 [26] of the same compound?
A: 5.79 µM

Q: What about the TGI [26] of the same compound?
A: 21.6 µM

Q: And the GI50 [27]?
A: 0.0194 µM

Q: What about the TGI [27] of the same compound?
A: 0.987 µM

Q: What about the GI50 [28] of the same compound?
A: 0.246 µM

Q: What about the TGI [28] of the same compound?
A: 3.89 µM

Q: And the GI50 [29]?
A: 0.436 µM

Q: What about the TGI [29] of the same compound?
A: 12.8 µM

Q: And the GI50 [30]?
A: 0.0255 µM

Q: What about the TGI [30] of the same compound?
A: 2.6 µM

Q: And the GI50 [31]?
A: 0.164 µM

Q: What about the TGI [31] of the same compound?
A: 2.69 µM

Q: And the GI50 [32]?
A: > 100 µM

Q: And the TGI [32]?
A: > 100 µM

Q: And the GI50 [33]?
A: 1.7 µM

Q: And the TGI [33]?
A: 8.83 µM

Q: And the GI50 [34]?
A: 2.92 µM

Q: And the TGI [34]?
A: 26.8 µM

Q: And the GI50 [35]?
A: 5.57 µM

Q: And the TGI [35]?
A: 39.7 µM

Q: What about the GI50 [36] of the same compound?
A: 0.376 µM

Q: And the TGI [36]?
A: 22.2 µM

Q: And the GI50 [37]?
A: 1.31 µM

Q: What about the TGI [37] of the same compound?
A: 27.1 µM

Q: What about the GI50 [38] of the same compound?
A: 0.567 µM

Q: And the TGI [38]?
A: 6.84 µM

Q: What about the GI50 [39] of the same compound?
A: 12.5 µM

Q: And the TGI [39]?
A: 34.9 µM

Q: And the GI50 [40]?
A: 0.0222 µM

Q: And the TGI [40]?
A: 5.69 µM

Q: What about the GI50 [41] of the same compound?
A: 0.227 µM

Q: And the TGI [41]?
A: 6.79 µM

Q: What about the GI50 [42] of the same compound?
A: 0.531 µM

Q: And the TGI [42]?
A: 9.47 µM

Q: And the GI50 [43]?
A: 2.26 µM

Q: What about the TGI [43] of the same compound?
A: 7.04 µM

Q: What about the GI50 [44] of the same compound?
A: 1.9 µM

Q: And the TGI [44]?
A: 16.2 µM

Q: What about the GI50 [45] of the same compound?
A: 0.615 µM

Q: And the TGI [45]?
A: 5.45 µM

Q: And the GI50 [46]?
A: 1.31 µM

Q: And the TGI [46]?
A: 27.7 µM

Q: What about the GI50 [47] of the same compound?
A: 0.15 µM

Q: What about the TGI [47] of the same compound?
A: 4.88 µM

Q: And the GI50 [48]?
A: 0.241 µM

Q: What about the TGI [48] of the same compound?
A: 15.4 µM

Q: What about the GI50 [49] of the same compound?
A: 0.726 µM

Q: What about the TGI [49] of the same compound?
A: 12.4 µM

Q: And the GI50 [50]?
A: 0.035 µM

Q: And the TGI [50]?
A: 1.19 µM

Q: And the GI50 [51]?
A: 0.561 µM

Q: And the TGI [51]?
A: 30 µM

Q: What about the GI50 [52] of the same compound?
A: 0.0806 µM

Q: What about the TGI [52] of the same compound?
A: 2.52 µM

Q: What about the GI50 [53] of the same compound?
A: 6.08 µM

Q: What about the TGI [53] of the same compound?
A: 31.7 µM

Q: What about the GI50 [54] of the same compound?
A: 0.0794 µM

Q: And the TGI [54]?
A: 1.3 µM

Q: And the GI50 [55]?
A: 1.48 µM

Q: And the TGI [55]?
A: 14.9 µM

Q: And the GI50 [56]?
A: 0.555 µM

Q: What about the TGI [56] of the same compound?
A: 14.8 µM

Q: What about the GI50 [57] of the same compound?
A: 3.13 µM

Q: What about the TGI [57] of the same compound?
A: > 100 µM
